Measured values published in patent US12208071B2, “Glucagon receptor antagonists” (LIGAND PHARMACEUTICALS INCORPORATED, priority 2018, dated 2025).
“Also recorded” adds a separate entry of the source.

Experiments:
[1] = Aqueous solubility, 24 hours at 25° C., HPLC; format: physicochemical; conditions: for solubility at 24 h: 25 °C, thermodynamic from solid; for solubility at 24 h / Solubility: 24 hours at 25° C., n = 2
Method: The testing media: Water, pH 4.0, 6.8, 7.4, 10.0 USP buffers (50 mM), 0.1N HCl, 0.01N HCl, SGF, FaSSIF, FeSSIF.
About 10 mg of Polymorph Form A was weighed and added to a 1.5 mL vial, and then 1.0 mL of aqueous media was added into the vial. The vial was shaken for 24 hours at 25° C. After equilibration for 24 hours, the mixture was centrifuged at 14000 rpm for 10 mins. The concentration of supernatant was checked by HPLC and the residuals were checked by XRPD. The final pH of supernatant was recorded. Experiments were conducted in duplicate.

[2] = Accelerated stability (ICH), 40° C./75% RH; format: physicochemical; conditions: for Appearance / Assay (anhydrous w/w %) / Chiral purity (area %) / Individual related substance (area %, w/w), RRT 0.46 / Individual related substance (area %, w/w), RRT 0.64 / Individual related substance (area %, w/w), RRT 1.26 / Purity (area %) / Total related substances (area %, w/w) / Water content (%) / XRPD: 40° C./75% RH
Method: Polymorph Form A was manufactured under Good Manufacturing Practices (GMP)-compliant conditions at a scale of 1.26 kg. The container closure for the batch consisted of double-lined low density polyethylene bags placed inside fiberboard drums, and the batch was on ICH stability under storage conditions of 25° C./60% relative humidity (RH) and 40° C./75% RH. Long-term stability data through the 36-month interval and accelerated stability data through the 6-month interval are shown in Tables 2 and 3.
Stability samples were tested according to the protocol (Table 5) and to the same specification as the drug substance. The available stability data for samples stored at 25° C./60% RH and 40° C./75% RH are summarized.

Form (XRPD of residual after solubility test) ([1]; 0.01N HCl): Form A
solubility at 24 h ([1]; 0.01N HCl, pH 2.24, simulated gastric fluid, initial pH 1.97, final pH 2.24): < 100 µg/mL
Solubility ([1]; 0.01N HCl, initial pH 1.97, final pH 2.24): 70 ± 0 µg/mL
Form (XRPD of residual after solubility test) ([1]; 0.1N HCl): Form A
solubility at 24 h ([1]; 0.1N HCl, pH 1.08, simulated gastric fluid, initial pH 1.02, final pH 1.08): < 100 µg/mL
Solubility ([1]; 0.1N HCl, initial pH 1.02, final pH 1.08): 60 ± 0 µg/mL
Form (XRPD of residual after solubility test) ([1]; FaSSIF): Form A
Form (XRPD of residual after solubility test) ([1]; FeSSIF): Form A
Form (XRPD of residual after solubility test) ([1]; SGF): Form A
solubility at 24 h ([1]; pH 4.0 USP buffer (50 mM), pH 4, aqueous buffer, pH 4.0 buffer, initial pH 4.05, final pH 4.13): < 100 µg/mL
Form (XRPD of residual after solubility test) ([1]; pH 4.0 buffer): Form A
Solubility ([1]; pH 4.0 buffer, initial pH 4.05, final pH 4.13): 50 ± 10 µg/mL
solubility at 24 h ([1]; pH 6.8 USP buffer (50 mM), pH 6.8, aqueous buffer, pH 6.8 buffer, initial pH 6.84, final pH 6.87): < 100 µg/mL
Form (XRPD of residual after solubility test) ([1]; pH 6.8 buffer): Form A
Solubility ([1]; pH 6.8 buffer, initial pH 6.84, final pH 6.87): 50 ± 0 µg/mL
solubility at 24 h ([1]; pH 7.4 USP buffer (50 mM), pH 7.4, aqueous buffer, pH 7.4 buffer, initial pH 7.43, final pH 7.46): < 100 µg/mL
Form (XRPD of residual after solubility test) ([1]; pH 7.4 buffer): Form A
Solubility ([1]; pH 7.4 buffer, initial pH 7.43, final pH 7.46): 60 ± 10 µg/mL
Form (XRPD of residual after solubility test) ([1]; pH 10.0 buffer): Form A
Form (XRPD of residual after solubility test) ([1]; water): Form A
water content ([2]; 40° C./75% RH after the 2-month interval, stabilized level): approximately 10%
Appearance ([2]; 0 months): White
Assay (anhydrous w/w %) ([2]; 0 months): 101.3 w/w %
Chiral purity (area %) ([2]; 0 months): 99.9 area %
Individual related substance (area %, w/w), RRT 0.46 ([2]; 0 months): 0.08 area %, w/w
Individual related substance (area %, w/w), RRT 0.64 ([2]; 0 months): 0.12 area %, w/w
Individual related substance (area %, w/w), RRT 1.26 ([2]; 0 months): 0.05 area %, w/w
Purity (area %) ([2]; 0 months): 99.8 area %
Total related substances (area %, w/w) ([2]; 0 months): 0.25 area %, w/w
Water content (%) ([2]; 0 months): 2.1%
Appearance ([2]; 1 month): White
Assay (anhydrous w/w %) ([2]; 1 month): 102.0 w/w %
Chiral purity (area %) ([2]; 1 month): 99.8 area %
Individual related substance (area %, w/w), RRT 0.46 ([2]; 1 month): 0.08 area %, w/w
Individual related substance (area %, w/w), RRT 0.64 ([2]; 1 month): 0.11 area %, w/w
Individual related substance (area %, w/w), RRT 1.26 ([2]; 1 month): 0.05 area %, w/w
Purity (area %) ([2]; 1 month): 99.8 area %
Total related substances (area %, w/w) ([2]; 1 month): 0.24 area %, w/w
Water content (%) ([2]; 1 month): 8.1%
Appearance ([2]; 2 months): White
Assay (anhydrous w/w %) ([2]; 2 months): 103.4 w/w %
Chiral purity (area %) ([2]; 2 months): 99.8 area %
Individual related substance (area %, w/w), RRT 0.46 ([2]; 2 months): 0.08 area %, w/w
Individual related substance (area %, w/w), RRT 0.64 ([2]; 2 months): 0.12 area %, w/w
Individual related substance (area %, w/w), RRT 1.26 ([2]; 2 months): 0.06 area %, w/w
Purity (area %) ([2]; 2 months): 99.7 area %
Total related substances (area %, w/w) ([2]; 2 months): 0.26 area %, w/w
Water content (%) ([2]; 2 months): 9.8%
Appearance ([2]; 3 months): White
Assay (anhydrous w/w %) ([2]; 3 months): 103.4 w/w %
Chiral purity (area %) ([2]; 3 months): 100.0 area %
Individual related substance (area %, w/w), RRT 0.46 ([2]; 3 months): 0.08 area %, w/w
Individual related substance (area %, w/w), RRT 0.64 ([2]; 3 months): 0.11 area %, w/w
Individual related substance (area %, w/w), RRT 1.26 ([2]; 3 months): 0.05 area %, w/w
Purity (area %) ([2]; 3 months): 99.8 area %
Total related substances (area %, w/w) ([2]; 3 months): 0.24 area %, w/w
Water content (%) ([2]; 3 months): 10.0%
XRPD ([2]; 3 months): Same form
Appearance ([2]; 6 months): White
Assay (anhydrous w/w %) ([2]; 6 months): 103.7 w/w %
Chiral purity (area %) ([2]; 6 months): 100.0 area %
Individual related substance (area %, w/w), RRT 0.46 ([2]; 6 months): 0.08 area %, w/w
Individual related substance (area %, w/w), RRT 0.64 ([2]; 6 months): 0.12 area %, w/w
Individual related substance (area %, w/w), RRT 1.26 ([2]; 6 months): 0.05 area %, w/w
Purity (area %) ([2]; 6 months): 99.8 area %
Total related substances (area %, w/w) ([2]; 6 months): 0.25 area %, w/w
Water content (%) ([2]; 6 months): 10.0%
XRPD ([2]; 6 months): Same form
Compound: Cc1cc(C)c(-c2ccc(NC(=O)[C@H](Cc3ccc(C(=O)NCCS(=O)(=O)[O-])cc3)c3ccc(-c4ccc(C(C)(C)C)cc4)cc3)cc2)c(C)c1.[Na+] [Polymorph Form A, Sodium (R)-2-(4-(2-(4′-(tert-butyl)-[1,1′-biphenyl]-4-yl)-3-oxo-3-((2′,4′,6′-trimethyl-[1,1′-biphenyl]-4-yl)amino)propyl)benzamido)ethane-1-sulfonate]
XRPD after solubility test (overall) ([1]; all aqueous media): no new forms were found; also recorded: no change
